Patent US12319967B2, “Methods and compositions for diagnosing and treating prostate cancer based on long noncoding RNA overlapping the LCK gene that regulates prostate cancer cell growth” (University of Virginia Patent Foundation, priority 2019, dated 2025)

What was measured:
HULLK [1] = assay: qPCR of HULLK (LCK 3'UTR / exon 13) transcript levels in response to hormone and AR, p300 or Brd4 inhibition; format: cell-based, human; conditions: for HULLK expression in response to R1881: 1 nM R1881; for R1881-induced increase in LCK 3'UTR transcript levels: 1 nM R1881, 24 hrs
Protocol: FIGS. 2A through 2E illustrate that HULLK is an AR-regulated lncRNA. […] LNCaP and C42 cells were transduced with two independent shRNAs to LCK and treated with 0-1 nM R1881. RNA was collected on Day 4 and LCK transcript levels were determined using LCK primers targeting the 3′UTR. […] LNCaP and C42 cells were seeded for 48 hrs, and then, treated with 1 nM R1881 in the presence or absence of 10 μM enzalutamide. RNA was collected 24 hrs after treatment and LCK transcript levels were determined by qPCR using LCK primers targeting the 3′UTR. C4-2, DU145, and PC3 cells were seeded in CSS media for 48 hrs, and then, treated with 1 nM R1881 for 16 hrs. RNA was collected and LCK transcript levels were determined using LCK primers targeting the 3′UTR. […] FIG. 2E illustrates that Brd4 inhibition reduces the hormone induction of HULLK, n=3. LNCaP, C42, or Jurkat cells were seeded for 48 hrs in the appropriate growth media, and then, treated with 1 nM R1881 in the presence or absence of 0.3 μM A-485 or 0.1 μM JQ1. RNA was collected 24 hrs after treatment and LCK transcript levels were determined by qPCR using LCK primers targeting exon 13 or 3′UTR. PSA and TMPRSS2 transcripts were determined to verify the efficacy of p300 and Brd4 inhibition.
FIGS. 7A and 7B illustrate the regulation of HULLK by the AR in breast cancer cells. […] LNCaP, MCF7, BT549, and MDA-MD-231 cells were seeded in the appropriate growth media, and whole cell lysates were collected 48 hrs later and blotted for AR21 and ERK1/2. […] MCF7, BT549, and MDA-MB-231 cells were seeded in CSS media for 48 hrs, and then, treated with 1 nM R1881 for 16 hrs. RNA was collected and LCK transcript levels were determined using LCK primers targeting the 3′UTR, n=3.
Cell Culture and Reagents. LNCaP and C4-2 cells (a gift from Dr. L. W. K. Chung) were grown in DMEM:F12 (Invitrogen) with 5% Non-Heat-Inactivated serum (Gemini) and 1% Insulin-Transferrin-Selenium-Ethanolamine (ThermoFisher). CWR22Rv1 (Rv1), VCaP, PC3 (gifts from Drs. Steven Balk, Karen Knudsen, and Chung, respectively), WMPY-1 (ATCC), MCF7, BT549 and MDA-MB-231 (gifts from Dr. Amy Bouton) were grown in DMEM (Invitrogen) with 10% Heat-Inactivated serum. DU145 (a gift from Dr. Chung), PANC1 (a gift from Dr. J. Thomas Parsons), HeLa and Jurkat cells (gifts from Dr. Tim Bender) were grown in RPMI-1640 (Invitrogen) with 10% Heat-Inactivated serum. LHS cells (a gift from Dr. William Hahn) were grown in ProstaLife Epithelial Cell Medium (Lifeline). RWPE-1 (ATCC) cells were grown in Keratinocyte-Serum-Free Media (Invitrogen). For growth and RNA experiments, phenol-red free DMEM:F12 media with 5% Charcoal-Stripped Serum (CSS) (Gemini) was used.
RNA Isolation, qPCR and ddPCR: RNA was collected using TRIzol and quantitated using a NanoDrop 2000 UV-Vis Spectrophotometer (ThermoFisher). cDNA was synthesized using Superscript IV VILO cDNA synthesis kit (Invitrogen). Quantitative real-time PCR (qPCR) was performed as previously described (17,18). Droplet digital PCR (ddPCR) was executed according to the manufacturer's protocol (Bio-Rad).
To assess whether this lncRNA is modulated by hormone, transcript levels of this lncRNA were quantified by qPCR using 3′UTR primers in LNCaP and C4-2 cells transduced in the presence of increasing concentrations of R1881 (FIG. 2A). […] This increase was inhibited in the presence of two independent LCK shRNAs in both cell lines.
This hormone regulation was confirmed by measuring transcript amounts in LNCaP and C4-2 cells treated with vehicle or R1881 in the presence or absence of the anti-androgen enzalutamide (FIG. 2B). As expected, there was an 8-fold and 12-fold R1881-induced increase in LCK 3′UTR transcript levels in LNCaP and C4-2 cells, respectively. […] Androgen deprivation influenced message levels negligibly in LNCaP cells, but decreased transcript amounts of this lncRNA by approximately 2.9-fold in C4-2 cells (FIG. 2B, C4-2 vehicle vs. media). […]

HULLK [2] = assay: qPCR of HULLK (LCK E11, LCK 3'UTR) in cytoplasmic and nuclear fractions of LNCaP cells; format: cell-based, human; conditions: 1 nM R1881, 24 hrs
Protocol: FIGS. 3A and 3B illustrate the results of studies designed to characterize HULLK. […] LNCaP cells were seeded for 48 hrs and treated with 1 nM R1881 for 24 hrs. RNA was collected and cDNA was synthesized using strand-specific primers. qPCR was performed with two independent LCK primer sets that amplify HULLK, n=3. […] LNCaP cells were seeded for 48 hrs and treated with 1 nM R1881 for 24 hrs. Whole cell lysates were separated into cytoplasmic and nuclear fractions by centrifugation. RNA was collected from each fraction and cDNA was synthesized using the iScript cDNA synthesis kit. qPCR was performed with two independent LCK primer sets that amplify HULLK, and cytoplasmic and nuclear control genes, n=3.
Some lncRNAs show preferential accumulation in the cytoplasm or nucleus, while other lncRNAs are equally expressed in both compartments. To determine the intracellular localization of HULLK, total RNA was collected to synthesize cDNA from cytoplasmic and nuclear fractions of LNCaP cells starved of hormone or exposed to 1 nM R1881 for 24 hrs and carried out qPCR with LCK E11 and LCK 3′UTR primers to amplify HULLK.

In the case of C[C@]1(O)CC[C@H]2[C@@H]3CCC4=CC(=O)CCC4=C3C=C[C@@]21C [R1881], the “R1881-induced increase in this lncRNA (HULLK)” value (HULLK [1]; AR-null DU145 and PC3 cells, 1 nM R1881, 16 hrs) is reported as “no R1881-induced increase”, the “HULLK expression in response to R1881” value (HULLK [1]; BT549 or MDA-MB-231 cells) is reported as “not” and the “R1881-induced increase in LCK 3'UTR transcript levels” value (HULLK [1]; C4-2 cells) is reported as 12 fold. For the same compound, the “lncRNA transcripts in response to increasing concentrations of R1881” value (HULLK [1]; LNCaP and C4-2 cells, 0-1 nM R1881, 3'UTR primers) was “dose-dependent increase”, the “R1881-induced increase in LCK 3'UTR transcript levels” value (HULLK [1]; LNCaP cells) was 8 fold and the “HULLK expression in response to R1881” value (HULLK [1]; MCF7 cells) was “increases”. The “hormone increase of LCK 3'UTR transcript levels” value (HULLK [2]; cytoplasmic fraction) was roughly 7.6 fold, the “hormone increase of LCK E11 transcript levels” value (HULLK [2]; cytoplasmic fraction) was “approximately 5.3 fold” and the “nuclear transcript amounts (LCK E11, LCK 3'UTR) in response to androgens” value (HULLK [2]; nuclear fraction) was “not influenced by androgens”.
